Earlier results, collected in patent US20100272789A1, “EXTERNAL MEDICINE FOR TREATMENT OR PREVENTION” (priority 2007, published 2010).

Conditions: 20 degrees Celsius at 1 atm

## [HH] [hydrogen molecules, hydrogen]
  solubility of hydrogen molecules into water: 1.6 µg/mL
